PMC10866962, “Molecular docking of bioactive compounds extracted and purified from selected medicinal plant species against covid-19 proteins and in vitro evaluation” (Scientific Reports, 2024)
Converted amounts (≈) assume the structure as drawn.

Columns and labels:
[1] = system: Xanthomonas; assay: Agar well diffusion method; format: cell-based; conditions: for zone of inhibition: compound solution 0.6 mg/mL, 40 μL per well, 24 h at 37 °C
Protocol: (§2) Antibacterial activity of compounds was determined by agar well diffusion method[42]. Antibacterial activity of different compounds was tested against seven clinical pathogens (Klebsiella pneumonia, Escherichia coli, Xanthomonas, S. aureus, Salmonella, P. aeruginosa and S. epidermitis). The nutrient agar medium was prepared by dissolving 6 g agar nutrient powder in 250 mL distilled water. The media was autoclaved and poured into pre-labeled petri plates under sterile condition. Then rinsed these plates with bacterial suspension before solidification. Allowed it to solidify for 15 min. Compound solution of 0.6 mg/mL was used. Cefixime with 1 mg/1 mL was used as positive control whereas DMSO was used as negative control. After solidification made wells of 6 mm using sterile cork borer. Each well was sealed with 20 μL of agar. After sealing 40 μL of each compound solution was added in well. The petri plates were sealed by para-film and kept in incubator for 24 h at 37 °C. The experiment was run in triplicates. The zone of inhibition of bacterial growth was measured with scale in mm.

[2] = ABTS free radical scavenging assay; parameters: IC50 values in ABTS assay (Table 2): unit not given beside the values; conditions: for free radical scavenging potential in ABTS assay: at 200 µg/mL; for IC50 value in ABTS assay / IC50 values in ABTS assay (Table 2): calculated by linear regression equation; for IC50 values in ABTS assay (Table 2): unit not given
[3] = system: brine shrimp nauplii; assay: Brine shrimp lethality assay (BSLA); conditions: 24 h; for mortality at 200 µg/mL: read-out: mortality rate / cytotoxic effect in brine shrimp lethality assay; for mortality rate / cytotoxic effect in brine shrimp lethality assay: at highest 200 µg/mL concentration
[4] = DPPH free radical scavenging assay; conditions: for IC50 in DPPH assay: calculated by linear regression equation; for antioxidant potential (free radical scavenging) in DPPH assay: at 200 µg/mL
Protocol: The DPPH assay was performed according to the protocol of Ghasemi et al.[40] with little modifications. For DPPH solution, 3 mg of DPPH powder was dissolved in 100 mL methanol. […] Different serial dilutions (25, 50, 100, and 200 μg/mL) were prepared. The 3 mL DPPH methanolic solution was added to 400 μL compounds methanolic solution. The mixture was continuously shaken and stored at room temperature under shade for exactly 30 min. The absorbance of reaction mixture was measured at 515 nm spectrophotometrically. […] The experiment was repeated three times and percentage inhibition was calculated as follows.

[5] = system: Klebsiella pneumoniae; assay: Agar well diffusion method; conditions: for zone of inhibition at 600 µg/mL: 24 h; for zone of inhibition: compound solution 0.6 mg/mL, 40 μL per well, 24 h at 37 °C
Protocol: as §2

[6] = system: E. coli; assay: Agar well diffusion method; format: cell-based, Escherichia coli; conditions: compound solution 0.6 mg/mL, 40 μL per well, 24 h at 37 °C
Protocol: (§1) Allowed it to solidify for 15 min. […] The experiment was run in triplicates.

[7] = system: Salmonella; assay: Agar well diffusion method; format: cell-based; conditions: compound solution 0.6 mg/mL, 40 μL per well, 24 h at 37 °C
Protocol: as §1

[8] = system: P. aeruginosa; assay: Agar well diffusion method; format: cell-based; conditions: compound solution 0.6 mg/mL, 40 μL per well, 24 h at 37 °C
Protocol: as §1

[9] = system: S. aureus; assay: Agar well diffusion method; format: cell-based; conditions: for zone of inhibition: S. aureus, compound solution 0.6 mg/mL, 40 μL per well, 24 h at 37 °C
Protocol: as §1

Row | Molecule | free radical scavenging potential in ABTS assay [2] [%] | IC50 value in ABTS assay [2] [µg/mL] | IC50 values in ABTS assay (Table 2) [2] | mortality at 200 µg/mL [3] [%] | IC50 in DPPH assay [4] [µg/mL] | also measured
1 | COc1ccc2c3c([nH]c2c1)C(C)=NCC3 [Harmaline] | 80.71 | 15.79 (≈ 73.7 µM) | 15.79 | 80 | 94.84 (≈ 443 µM) | zone of inhibition at 600 µg/mL ([1]; 24 h): 23 mm
2 | O=c1c(O[C@@H]2O[C@H](CO)[C@@H](O)[C@H](O)[C@H]2O)c(-c2ccc(O)cc2)oc2cc(O)cc(O)c12 [Astragalin] | 78 | – | 49.41 | 55 | 100.9 (≈ 225 µM) | zone of inhibition at 600 µg/mL [5]: 26 mm
3 | O=C(c1ccc(O)cc1)c1c(O)cc(O)c([C@@H]2O[C@H](CO)[C@@H](O)[C@H](O)[C@H]2O)c1O [Irriflophenone-3-C-β-D-glucopyranoside] | 71 | 112.63 (≈ 276 µM) | 112.6 | – | 125 (≈ 306 µM) | zone of inhibition [1]: 19 mm; zone of inhibition [6]: 34 mm; zone of inhibition [5]: 30 mm; mortality rate / cytotoxic effect in brine shrimp lethality assay [3]: 65%; zone of inhibition [7]: 31 mm; zone of inhibition [8]: 8 mm; zone of inhibition [9]: 28 mm
4 | O=c1c2ccccc2nc2n1CC[C@@H]2O [PH-HM 17, vasicinone] | – | – | 101.6 | – | 124.9 (≈ 618 µM) | zone of inhibition [1]: 22 mm
5 | O=C(/C=C/c1ccc(O)cc1)OC[C@H]1O[C@@H](Oc2c(-c3ccc(O)cc3)oc3cc(O)cc(O)c3c2=O)[C@H](O)[C@@H](O)[C@@H]1O [Tiliroside] | 70 | 101.64 (≈ 171 µM) | 67.53 | 95 | 78.77 (≈ 132 µM) | zone of inhibition at 600 µg/mL [5]: 24 mm; LD50 value in brine shrimp lethality assay [3]: 73.59 µg/mL; antioxidant potential (free radical scavenging) in DPPH assay [4]: 77.77%; IC50 in DPPH assay ([4]; listed as tiliroside): 78.77 µg/mL (≈ 132 µM)
6 | CN1CCC[C@H]1c1cccnc1 [Nicotine, reference compound] | – | – | – | 100 | – | LD50 value in brine shrimp lethality assay [3]: 30.69 µg/mL
7 | O=C1O[C@H]([C@@H](O)CO)C(O)=C1O [Ascorbic acid, reference compound] | 90 | 14.77 (≈ 83.9 µM) | 14.77 | – | 97.065 (≈ 551 µM) | –
8 | O[C@H]1CCN2Cc3ccccc3N=C12 [Vasicine] | 69 | 114.82 (≈ 610 µM) | 114.8 | 55 | 137.7 (≈ 732 µM) | zone of inhibition at 600 µg/mL ([9]; Staphylococcus aureus, 24 h): 22 mm
9 | O=c1c2cc(O)c(O)cc2oc2cc(O)c([C@@H]3O[C@H](CO)[C@@H](O)[C@H](O)[C@H]3O)c(O)c12 [Mangiferrin] | 73 | 110.33 (≈ 261 µM) | 110.3 | 50 | 110.4 (≈ 261 µM) | zone of inhibition at 600 µg/mL ([6]; Escherichia coli): 15 mm; zone of inhibition at 600 µg/mL [5]: 32 mm; zone of inhibition at 600 µg/mL [7]: 28 mm; zone of inhibition at 600 µg/mL ([8]; Pseudomonas aeruginosa): 10 mm
10 | Quercitin-3-O rhamnoside [Quercitin-3-O-rhamnoside] | – | – | – | – | 185.27 | zone of inhibition [5]: 22 mm; IC50 in DPPH assay ([4]; listed as Quercetin-3-O- rahmnoside): 185.3 µg/mL
11 | O=c1c2cc(O)c(O)cc2oc2c([C@@H]3O[C@H](CO)[C@@H](O)[C@H](O)[C@H]3O)c(O)cc(O)c12 [Isomangiferrin] | 62 | 124.19 (≈ 294 µM) | 124.2 | – | 93.86 (≈ 222 µM) | zone of inhibition [5]: 28 mm; mortality rate / cytotoxic effect in brine shrimp lethality assay [3]: 55%; antioxidant potential (free radical scavenging) in DPPH assay [4]: 78.32%; IC50 in DPPH assay ([4]; listed as isomangiferrin): 93.85 µg/mL (≈ 222 µM); zone of inhibition [8]: 5 mm; zone of inhibition [9]: 32 mm
12 | COc1ccc2c(c1)[nH]c1c(C)nccc12 [Harmine] | – | – | – | 65 | – | –
